Laboratory results as given in patent publication US20140051729A1, “COMPOSITIONS AND METHODS FOR TREATING DEGENERATIVE MUSCLE CONDITIONS” (University of Washington, priority 2011, published 2014).

Key:
[1] = biological target: T1, SPL (Mus musculus, UniProt Q8R0X7); settings: Schwab et al., Science 2005; cited from earlier work
T1 construct: host or cells: mice (in vivo)
T1 sequence (Q8R0X7 1-568): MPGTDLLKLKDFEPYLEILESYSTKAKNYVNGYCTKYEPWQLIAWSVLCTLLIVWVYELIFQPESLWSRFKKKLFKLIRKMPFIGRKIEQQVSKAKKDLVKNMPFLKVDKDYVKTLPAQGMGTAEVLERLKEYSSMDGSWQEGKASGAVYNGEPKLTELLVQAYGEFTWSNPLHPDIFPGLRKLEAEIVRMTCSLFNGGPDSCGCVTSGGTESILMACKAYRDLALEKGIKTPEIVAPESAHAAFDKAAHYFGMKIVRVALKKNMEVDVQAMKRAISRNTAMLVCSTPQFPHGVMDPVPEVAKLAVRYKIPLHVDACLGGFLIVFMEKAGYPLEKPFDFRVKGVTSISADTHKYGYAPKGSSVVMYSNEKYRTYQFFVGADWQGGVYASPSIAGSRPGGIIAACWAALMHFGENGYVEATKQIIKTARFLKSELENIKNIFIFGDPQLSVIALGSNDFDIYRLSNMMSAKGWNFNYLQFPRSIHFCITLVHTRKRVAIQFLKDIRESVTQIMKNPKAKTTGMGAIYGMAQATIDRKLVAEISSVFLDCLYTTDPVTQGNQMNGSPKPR

[2] = test system: plasma creatine kinase (CK) activity; assay: Plasma creatine kinase assay in mdx mice; assay type: in vivo, mouse; settings: 5-month-old mdx males, day 4 post CTX, vs vehicle
Procedure: The effects of THI in the dystrophic mdx mouse model were studied. […] THI was administered intraperitoneally (IP) to three groups of mdx mice. Right tibialis anterior (TA) and quadriceps muscles were uninjured, while left counterparts were injured using CTX, a well characterized model of acute injury where initial muscle destruction is followed by a rapid myogenic response. The mdx mice were injected with THI, or PBS as a vehicle control, immediately following injury with CTX 5 times during a 3-day period (FIG. 3a). In the first group (N=6, 5-month-old males) the mdx mice were sacrificed at day 4 to analyze the efficacy of the administration of THI for increasing S1P levels in spleen, CTX injured quadriceps, and uninjured quadriceps. The effects of THI administration on the plasma creatine kinase (CK) activity level was also measured.
Mdx mouse plasma samples were diluted 1:50 and total creatine kinsase activity was measured by an enzymatic rate method using a Beckman Coulter instrument. Relative levels were then normalized to body weight.

[3] = test system: Dystrophic mutant flies (TubGal4:UAS-Dys^C-RNAi/+); assay: Myofibril Projectin immunohistochemistry in dystrophic flies after oral THI; assay type: in vivo, Drosophila melanogaster; settings: 3 days once-daily oral THI, myofibrils from 10 day old flies
Procedure: In mice, the genetic reduction of S1P lyase activity can be phenocopied pharmacologically by the delivery of the small molecule 1-[5-[(1R,2S,3R)-1,2,3,4-tetrahydroxybutyl]-1H-imidazol-2-yl]-ethanone (THI), which inhibits the activity of S1P lyase. Dystrophic mutant flies were administered THI to investigate possible THI suppression of the muscle degeneration phenotype.
Flies were dipped in 95% EtOH and then dissected in 1×PBS (pH 7.4). Heads and abdomens were removed, and the thoraxes opened. Samples were stained using a modified ovary staining protocol 3. Samples were then fixed in 5% paraformaldehyde (Electron Microscopy Sciences) for 1 hour, rinsed in PBT (PBS/0.2% Triton X-100 v/v) 4 times, and then blocked for 1 hour in PBTB (PBT, 0.4% BSA w/v, 5% Normal Goat Serum v/v) at room temperature. Samples were stained in primary antibody pre-diluted in PBTB (Phalloidin-Alexa-Fluor 568, Invitrogen [mouse, 1:200]; Projectin (Mac150), Babraham Institute [rat, 1:50]) overnight at 4° C., rinsed in PBT 4 times at room temperature (RT), and then stained with secondary antibody pre-diluted in PBTB (Alexa Fluor 488 [mouse, 1:500]) overnight at 4° C. […] For each genotype, 4-5 flies were analyzed, and 6-7 muscles per fly were analyzed. […]

For `CC(=O)c1ncc([C@@H](O)[C@H](O)[C@H](O)CO)[nH]1` [THI, 1-[5-[(1R,2S,3R)-1,2,3,4-tetrahydroxybutyl]-1H-imidazol-2-yl]-ethanone], the “SPL activity when administered to mice” value [1] is given as “inhibits SPL activity”, the “plasma CK levels” value [2] is given as “reduced” and the “suppression of muscle wasting (myofibrils)” value [3] is given as “significant suppression of muscle wasting”.
